Assays:
common lambsquarters [1] = test: Foliar spread test for upland field; assay type: in vivo, Chenopodium album; parameters: key: 0 = normal development, 5 = all killed (6 ranks vs. untreated); conditions: foliar spray, 500 ppm, 3 weeks, glass house 25° C.
Outline: (§1)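 Seeds were sown in volcanic ash soil in Wagner pots and grown about 2 weeks in a glass house at an average 25° C. Wettable-powder formulations diluted to 500 ppm in water with 0.5% surfactant were sprayed uniformly over the plants. After 3 further weeks at 25° C, damage was scored 0 (normal) to 5 (all killed) against untreated plants.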

velvetleaf [2] = test: Soil treatment test for upland field; assay type: in vivo, Abutilon theophrasti; parameters: key: 0 = normal development, 5 = all killed; conditions: 500 g/ha, 3 weeks, glass house 25° C.
Outline: (§2)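 Pre-emergence soil spray, 500 g/ha, WP formulation in water + 0.05% surfactant; alluvial soil; glasshouse, avg 25° C, 3 wk. Score 0 (normal) to 5 (all killed) vs untreated.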

green foxtail [3] = test: Foliar spread test for upland field; assay type: in vivo, Setaria viridis; parameters: key: 0 = normal development, 5 = all killed (6 ranks vs. untreated); conditions: foliar spray, 500 ppm, 3 weeks, glass house 25° C.
Outline: as §1

livid amaranth [4] = test: Foliar spread test for upland field; assay type: in vivo, Amaranthus lividus; parameters: key: 0 = normal development, 5 = all killed (6 ranks vs. untreated); conditions: foliar spray, 500 ppm, 3 weeks, glass house 25° C.
Outline: as §1

blackgrass [5] = test: Foliar spread test for upland field; assay type: in vivo, Alopecurus aegualis; parameters: key: 0 = normal development, 5 = all killed (6 ranks vs. untreated); conditions: foliar spray, 500 ppm, 3 weeks, glass house 25° C.
Outline: as §1

blackgrass [6] = test: Soil treatment test for upland field; assay type: in vivo, Alopecurus aegualis; parameters: key: 0 = normal development, 5 = all killed; conditions: 500 g/ha, 3 weeks, glass house 25° C.
Outline: as §2

common lambsquarters [7] = test: Soil treatment test for upland field; assay type: in vivo, Chenopodium album; parameters: key: 0 = normal development, 5 = all killed; conditions: 500 g/ha, 3 weeks, glass house 25° C.
Outline: as §2

morning glory [8] = test: Foliar spread test for upland field; assay type: in vivo, Ipomoea spps.; parameters: key: 0 = normal development, 5 = all killed (6 ranks vs. untreated); conditions: foliar spray, 500 ppm, 3 weeks, glass house 25° C.
Outline: as §1

barnyard grass [9] = test: Soil treatment test for upland field; assay type: in vivo, Eschinochloa crusgalli; parameters: key: 0 = normal development, 5 = all killed; conditions: 500 g/ha, 3 weeks, glass house 25° C.
Outline: as §2

annual bluegrass [10] = test: Foliar spread test for upland field; assay type: in vivo, Poa annua; parameters: key: 0 = normal development, 5 = all killed (6 ranks vs. untreated); conditions: foliar spray, 500 ppm, 3 weeks, glass house 25° C.
Outline: as §1

annual bluegrass [11] = test: Soil treatment test for upland field; assay type: in vivo, Poa annua; parameters: key: 0 = normal development, 5 = all killed; conditions: 500 g/ha, 3 weeks, glass house 25° C.
Outline: as §2

green foxtail [12] = test: Soil treatment test for upland field; assay type: in vivo, Setaria viridis; parameters: key: 0 = normal development, 5 = all killed; conditions: 500 g/ha, 3 weeks, glass house 25° C.
Outline: as §2

Large crabgrass [13] = test: Foliar spread test for upland field; assay type: in vivo, Digitaria adscendens; parameters: key: 0 = normal development, 5 = all killed (6 ranks vs. untreated); conditions: foliar spray, 500 ppm, 3 weeks, glass house 25° C.
Outline: as §1

solgum [14] = test: Foliar spread test for upland field; assay type: in vivo; parameters: key: 0 = normal development, 5 = all killed (6 ranks vs. untreated); conditions: foliar spray, 500 ppm, 3 weeks, glass house 25° C.
Outline: as §1

cotton [15] = test: Foliar spread test for upland field; assay type: in vivo; parameters: key: 0 = normal development, 5 = all killed (6 ranks vs. untreated); conditions: foliar spray, 500 ppm, 3 weeks, glass house 25° C.
Outline: as §1

wheat [16] = test: Foliar spread test for upland field; assay type: in vivo; parameters: key: 0 = normal development, 5 = all killed (6 ranks vs. untreated); conditions: foliar spray, 500 ppm, 3 weeks, glass house 25° C.
Outline: as §1

soybean [17] = test: Foliar spread test for upland field; assay type: in vivo; parameters: key: 0 = normal development, 5 = all killed (6 ranks vs. untreated); conditions: foliar spray, 500 ppm, 3 weeks, glass house 25° C.
Outline: as §1

corn [18] = test: Foliar spread test for upland field; assay type: in vivo; parameters: key: 0 = normal development, 5 = all killed (6 ranks vs. untreated); conditions: foliar spray, 500 ppm, 3 weeks, glass house 25° C.
Outline: as §1

sugar beat [19] = test: Foliar spread test for upland field; assay type: in vivo; parameters: key: 0 = normal development, 5 = all killed (6 ranks vs. untreated); conditions: foliar spray, 500 ppm, 3 weeks, glass house 25° C.
Outline: as §1

cotton [20] = test: Soil treatment test for upland field; assay type: in vivo; conditions: 500 g/ha, 3 weeks, glass house 25° C.
Procedure: The herbicidal effects are evaluated according to the following 6 ranks as compared with non-treated district. (0: normal development, 1: Less damaged, 2: Slightly damaged, 3: Moderately damaged, 4: Severely damaged, 5: All killed). Incidentally, “-” in the column means not investigated.
Wagner pots, each having an area of 1/5000 are, were packed with Ube soil (alluvial soil), and then each seed of corn, soybean, cotton, wheat, solgum, sugar beat, Large crabgrass, barnyard grass, green foxtail, blackgrass, annual bluegrass, common lambsquarters, livid amaranth, velvetleaf, morning glory, common Cocklebur (Xanthium strumarium) and sicklepod (Cassia obtusifolia) were planted and covered with soil.
Each wettable powder of the desired compounds (I) shown in Tables 1 to 21, 24, 25, 28 and 29 prepared in accordance with Example 2 was diluted with water containing a surfactant (0.05%) and uniformly sprayed on the surface of each soil so that an effective concentration of the compound (I) in each herbicide became 500 g/ha.
These plants were controlled in a glass house at an average temperature of 25° C. for 3 weeks, and then herbicidal effects thereof were investigated.
The herbicidal effects were evaluated according to the evaluation method described in the above (1).

velvetleaf [21] = test: Foliar spread test for upland field; assay type: in vivo, Abutilon theophrasti; parameters: key: 0 = normal development, 5 = all killed (6 ranks vs. untreated); conditions: foliar spray, 500 ppm, 3 weeks, glass house 25° C.
Outline: as §1

solgum [22] = test: Soil treatment test for upland field; assay type: in vivo; parameters: key: 0 = normal development, 5 = all killed; conditions: 500 g/ha, 3 weeks, glass house 25° C.
Outline: as §2

wheat [23] = test: Soil treatment test for upland field; assay type: in vivo; parameters: key: 0 = normal development, 5 = all killed; conditions: 500 g/ha, 3 weeks, glass house 25° C.
Outline: as §2

corn [24] = test: Soil treatment test for upland field; assay type: in vivo; parameters: key: 0 = normal development, 5 = all killed; conditions: 500 g/ha, 3 weeks, glass house 25° C.
Outline: as §2

sugar beat [25] = test: Soil treatment test for upland field; assay type: in vivo; parameters: key: 0 = normal development, 5 = all killed; conditions: 500 g/ha, 3 weeks, glass house 25° C.
Outline: as §2

morning glory [26] = test: Soil treatment test for upland field; assay type: in vivo, Ipomoea spps.; parameters: key: 0 = normal development, 5 = all killed; conditions: 500 g/ha, 3 weeks, glass house 25° C.
Outline: as §2

Large crabgrass [27] = test: Soil treatment test for upland field; assay type: in vivo, Digitaria adscendens; parameters: key: 0 = normal development, 5 = all killed; conditions: 500 g/ha, 3 weeks, glass house 25° C.
Outline: as §2

livid amaranth [28] = test: Soil treatment test for upland field; assay type: in vivo, Amaranthus lividus; parameters: key: 0 = normal development, 5 = all killed; conditions: 500 g/ha, 3 weeks, glass house 25° C.
Outline: as §2

barnyardgrjass = test: Foliar spread test for upland field; assay type: in vivo, Eschinochloa crusgalli; parameters: key: 0 = normal development, 5 = all killed (6 ranks vs. untreated); conditions: foliar spray, 500 ppm, 3 weeks, glass house 25° C.
Outline: as §1

barnyard grass [29] = test: Herbicidal test for paddy field; assay type: in vivo, Eschinochloa crusgalli; conditions: 500 g/ha, dropwise addition to paddy water at 1.5 leaf stage of barnyard grass; glass house 25° C., 3 weeks; rank 0-5 vs non-treated district
Outline: (§3)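 Wettable-powder formulations in water with 0.05% surfactant were dripped onto flooded (3 cm) Ube alluvial-soil pots at 500 g/ha, applied at barnyard grass 1.5-leaf stage. Plants were kept in a glasshouse at 25° C. for 3 weeks. Damage was scored 0 (normal) to 5 (all killed) versus untreated plants.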

Cyperus serotinus Rottb. = test: Herbicidal test for paddy field; assay type: in vivo; conditions: 500 g/ha, dropwise addition to paddy water at 1.5 leaf stage of barnyard grass; glass house 25° C., 3 weeks; rank 0-5 vs non-treated district
Outline: as §3

soybean [30] = test: Soil treatment test for upland field; assay type: in vivo; parameters: key: 0 = normal development, 5 = all killed; conditions: 500 g/ha, 3 weeks, glass house 25° C.
Outline: as §2

bulrush = test: Herbicidal test for paddy field; assay type: in vivo, Scrips juncoides; conditions: 500 g/ha, dropwise addition to paddy water at 1.5 leaf stage of barnyard grass; glass house 25° C., 3 weeks; rank 0-5 vs non-treated district
Outline: as §3

SMILES	Effects Common lambsquarters (common lambsquarters [1])	Effects Velvetleaf (velvetleaf [2])	Effects Green foxtail (green foxtail [3])	Effects Livid amaranth (livid amaranth [4])	Effects Blackgrass (blackgrass [5])	Effects Blackgrass (blackgrass [6])	Effects Common lambsquarters (common lambsquarters [7])	Effects Morning glory (morning glory [8])	Effects Barnyardgrass (barnyard grass [9])	Effects Annual bluegrass (annual bluegrass [10])	Effects Annual bluegrass (annual bluegrass [11])	Effects Green foxtail (green foxtail [12])	Effects Large crabgrass (Large crabgrass [13])	Effects Solgum (solgum [14])	Effects Sotton (cotton [15])	Effects Wheat (wheat [16])	Effects Soybean (soybean [17])	Effects Corn (corn [18])	Effects Sugar beat (sugar beat [19])	Effects Sotton (cotton [20])	further results
CCC(F)(Cc1ccc(F)c(C(F)(F)F)c1)c1nc2cc(Cl)ccc2o1 (stereo not drawn) [I-d-13, 1-(5-chlorobenzoxazol-2-yl)-1-(4-fluoro-3-trifluoromethylbenzyl)propyl fluoride]	5	5	2	5	1	4	5	5	2	1	5	5	2	1	5	1	5	2	5	0	Effects Velvetleaf (velvetleaf [21]): 4; Effects Solgum (solgum [22]): 0; Effects Wheat (wheat [23]): 0; Effects Corn (corn [24]): 0; Effects Sugar beat (sugar beat [25]): 5; Effects Morning glory (morning glory [26]): 1; Effects Large crabgrass (Large crabgrass [27]): 5; Effects Livid amaranth (livid amaranth [28]): 5; Effects Barnyardgrass (barnyardgrjass): 1
CC/C(=C\c1ccc(F)c(C(F)(F)F)c1)c1nc2cc(Cl)ccc2o1 [I-c-54, (E)-2-(5-chlorobenzoxazol-2-yl)-1-(4-fluoro-3-trifluoromethylphenyl)butene]	5	5	4	5	4	5	5	3	5	4	5	5	4	3	3	2	4	3	5	3	Effects Barnyardgrass (barnyard grass [29]): 5; Effects Cyperus serotinus Rottb. (Cyperus serotinus Rottb.): 3; Effects Velvetleaf (velvetleaf [21]): 3; Effects Solgum (solgum [22]): 2; Effects Wheat (wheat [23]): 1; Effects Soybean (soybean [30]): 5; Effects Corn (corn [24]): 1; Effects Sugar beat (sugar beat [25]): 5; Effects Morning glory (morning glory [26]): 5; Effects Large crabgrass (Large crabgrass [27]): 5; Effects Livid amaranth (livid amaranth [28]): 5; Effects Barnyardgrass (barnyardgrjass): 2; Effects Bulrush (bulrush): 3
CCC(O)(Cc1ccc(F)c(C(F)(F)F)c1)c1nc2cc(Cl)ccc2o1 (stereo not drawn) [I-d-11, 1-(5-chlorobenzoxazol-2-yl)-1-(4-fluoro-3-trifluoromethylbenzyl)propanol]	–	–	–	–	–	–	–	–	–	–	–	–	–	–	–	–	–	–	–	–	melting point: 90 to 93 °C

Source: patent publication US7402548B2, “Benzoxazole compounds, process for producing the same and herbicides” (Kyoyu Agri Co., Ltd., priority 2000, dated 2008)
